Publication PMC10683023, “Targeting Glial Cells by Organic Anion-Transporting Polypeptide 1C1 (OATP1C1)-Utilizing L-Thyroxine-Derived Prodrugs” (Journal of Medicinal Chemistry, 2023)

The compounds below were run on mouse primary astrocytes (assay: Concentration-dependent cellular uptake into mouse primary astrocytes). Conditions: 5–400 μM, 30 min, 37 °C.
Assay type: cell-based
Method: The mouse primary astrocytes were isolated from neonatal pups (P0-2) of wild-type mice (C57BL/6JOlaHsd) as previously described, in compliance with the European Commission Directive 2010/63/EU and approved by the Institutional Animal Care and Use Committee of the University of Eastern Finland (Animal Usage Plan numbers: EKS-006-2019).[37] Neonatal pups were decapitated, and their brains were collected in an ice-cold HBSS buffer. After tissue dissociation and washing, cells were plated on poly-L-lysine-coated flasks and cultured in DMEM supplemented with FBS, L-glutamine, and penicillin/streptomycin (50 μg/mL) for 24 h. Debris and dead cells were removed by DPBS rinsing. After 7 days, microglial cells were removed, and the remaining astrocytic monolayer was collected by trypsinization using 0.05% trypsin-ethylenediaminetetraacetic acid (EDTA) (Gibco), pelleted, and stored at −80 °C for subsequent analysis. For the cell uptake experiments, the astrocytes were seeded on 24-well plates with a density of 10^4 cells/well 3 days before the experiments.
After removal of the culture medium, U-87MG human glioma cells and mouse primary astrocytes were carefully washed with prewarmed Hank’s balanced salt solution (HBSS) containing 125.0 mM NaCl (or choline chloride in Na^+ free conditions), 4.8 mM KCl, 1.2 mM MgSO4, 1.2 mM KH2PO4, 1.3 mM CaCl2, 5.6 mM glucose, and 25.0 mM 4-(2-hydroxyethyl)piperazine-1-ethanesulfonic acid (HEPES) with the pH adjusted to either 7.4 or pH 8.5 with 1 M NaOH (or KOH in sodium-free conditions). In the experiments at lower pH (4.5–6.5), 25.0 mM HEPES was replaced by 2-(N-morpholino) ethanesulfonic acid (MES), and the pH was adjusted to 4.5, 5.5, and 6.5 by 1.0 M NaOH. Preincubation was done with 500 μL of prewarmed HBSS at 37 °C for 10 min before adding the substrate for the uptake experiments. The functionality of OATP1C1 in human glioma U-87MG cells was studied with a known substrate (L-thyroxine, T4) and of oatp1a4, 1a5, and 1a6 in mouse primary astrocytes with [6,7-^3H(N)]-estrone-3-sulfate (ES) by incubating the uptake solution (250 μL in HBSS) consisting of 5–400 μM of the substrate at 37 °C for 30 min. After incubation, the uptake was stopped by adding 500 μL of ice-cold HBSS, and the cells were washed two times with ice-cold HBSS (2 × 500 μL). The cells were then lysed with 500 μL of 0.1 M NaOH (60 min), the lysate was neutralized, and the protein was precipitated with acidic acetonitrile (ACN with 4.8% formic acid). The supernatants were analyzed by the high-performance liquid chromatography (HPLC) methods described below (T4) or by using a liquid scintillation counter (MicroBeta2 counter, PerkinElmer, Waltham, MA) (ES). The concentrations of T4 and ES were calculated from the spiked standard curve and normalized with the protein concentrations. The protein concentrations on each plate were determined as a mean of three samples by Bio-Rad Protein Assay, based on the Bradford dye-binding method, using bovine serum albumin (BSA) as a standard protein and measuring the absorbance (595 nm) by a multiplate reader (EnVision, PerkinElmer, Inc., Waltham, MA). The OATP-mediated uptake was confirmed by changing the pH of the uptake buffer in the absence of sodium ions, and in the case of OATP1C1 in human U-87MG cells, the uptake of T4 (100 μM) was studied in the presence of competing OATP1C1-ligands, diclofenac and flufenamic acid (100 μM), and in the case of oatp1a4/1a5/1a6 in mouse primary astrocytes, the uptake of ES (100 μM) was studied in the presence of competing OATO1A2-ligand, naringin (100 μM).
Cellular uptake of prodrugs 1–8 was studied as described for L-thyroxine above by adding compounds at a concentration of 5–400 μM in prewarmed HBSS buffer (250 μL) on the cell layer and incubating at 37 °C for 30 min (uptake was linear with all compounds up to 30 min). Subsequently, the cells were washed three times with ice-cold HBSS and lysed with 500 μL of 0.1 M NaOH (60 min). […]

| Compound | Km [µM] | Vmax, cellular uptake, astrocytes [nmol/min/mg] |
| --- | --- | --- |
| CC(C(=O)Oc1c(I)cc(C[C@H](N)C(=O)O)cc1I)c1ccc(-c2ccccc2)c(F)c1 (mixture of isomers) [Prodrug 7, (2S)-2-Amino-3-(4-((2-(2-fluoro-[1,1′-biphenyl]-4-yl)propanoyl)oxy)-3,5-diiodophenyl)propanoic acid] | 360 ± 61 | 10.3 ± 1.1 |
| N[C@@H](Cc1cc(I)c(Oc2cc(I)c(OC(=O)c3ccccc3O)c(I)c2)c(I)c1)C(=O)O [Prodrug 4, (S)-2-Amino-3-(4-(4-((2-hydroxybenzoyl)oxy)-3,5-diiodophenoxy)-3,5-diiodophenyl)propanoic acid] | 86 ± 32 | 5.5 ± 0.8 |
| N[C@@H](Cc1cc(I)c(OC(=O)c2ccccc2O)c(I)c1)C(=O)O [Prodrug 3, (S)-2-Amino-3-(4-((2-hydroxybenzoyl)oxy)-3,5-diiodophenyl)propanoic acid] | 685 ± 97 | 13.0 ± 1.3 |

Further lines, with some results ahead:

| Km [µM] | Compound | Vmax, cellular uptake, astrocytes [nmol/min/mg] |
| --- | --- | --- |
| 58 ± 20 | CC(C(=O)Oc1c(I)cc(Oc2c(I)cc(C[C@H](N)C(=O)O)cc2I)cc1I)c1ccc(-c2ccccc2)c(F)c1 (mixture of isomers) [Prodrug 8, (2S)-2-Amino-3-(4-(4-((2-(2-fluoro-[1,1′-biphenyl]-4-yl)propanoyl)oxy)-3,5-diiodophenoxy)-3,5-diiodophenyl)propanoic acid] | 3.0 ± 0.4 |
| 123 ± 21 | CC(C(=O)Oc1c(I)cc(Oc2c(I)cc(C[C@H](N)C(=O)O)cc2I)cc1I)c1cccc(C(=O)c2ccccc2)c1 (mixture of isomers) [Prodrug 2, (2S)-2-Amino-3-(4-(4-((2-(3-benzoylphenyl)propanoyl)oxy)-3,5-diiodophenoxy)-3,5-diiodophenyl)propanoic acid] | 5.5 ± 0.4 |
